Key:
Rattus norvegicus [1] = experiment: Antiinflammatory against carrageenan-induced paw edema in Sprague-Dawley rat assessed as remaining paw edema at 25 mg/kg, sc administered 30 mins before carrageenan challenge measured after 1 hr by plethysmometer relative to control; type: functional; settings: route subcutaneous
Rattus norvegicus [2] = experiment: Antiinflammatory against carrageenan-induced paw edema in Sprague-Dawley rat assessed as remaining paw edema at 50 mg/kg, sc administered 30 mins before carrageenan challenge measured after 4 hrs by plethysmometer relative to control; type: functional; settings: route subcutaneous
Mus musculus [3] = experiment: Analgesic activity in Swiss albino mouse assessed as inhibition of acetic acid-induced abdominal constriction at 25 mg/kg, sc administered 30 mins prior to acetic acid challenge measured for 30 mins relative to control; type: functional; settings: Abdomen, route subcutaneous
Rattus norvegicus [4] = experiment: Antiinflammatory against carrageenan-induced paw edema in Sprague-Dawley rat assessed as remaining paw edema at 25 mg/kg, sc administered 30 mins before carrageenan challenge measured after 3 hrs by plethysmometer relative to control; type: functional; settings: route subcutaneous
Rattus norvegicus [5] = experiment: Antiinflammatory against carrageenan-induced paw edema in Sprague-Dawley rat assessed as remaining paw edema at 50 mg/kg, sc administered 30 mins before carrageenan challenge measured after 1 hr by plethysmometer relative to control; type: functional; settings: route subcutaneous
Rattus norvegicus [6] = experiment: Antiinflammatory against carrageenan-induced paw edema in Sprague-Dawley rat assessed as remaining paw edema at 25 mg/kg, sc administered 30 mins before carrageenan challenge measured after 2 hrs by plethysmometer relative to control; type: functional; settings: route subcutaneous
Rattus norvegicus [7] = experiment: Antiinflammatory against carrageenan-induced paw edema in Sprague-Dawley rat assessed as remaining paw edema at 25 mg/kg, sc administered 30 mins before carrageenan challenge measured after 4 hrs by plethysmometer relative to control; type: functional; settings: route subcutaneous
Rattus norvegicus [8] = experiment: Antiinflammatory against carrageenan-induced paw edema in Sprague-Dawley rat assessed as remaining paw edema at 50 mg/kg, sc administered 30 mins before carrageenan challenge measured after 3 hrs by plethysmometer relative to control; type: functional; settings: route subcutaneous
Rattus norvegicus [9] = experiment: Analgesic activity in Sprague-Dawley rat assessed as change in latency time required to elicit jumping or hind paw licking at 25 mg/kg, sc administered 1 hr prior testing measured after 1 hr of post dose by hot plate method relative to basal level; type: functional; settings: route subcutaneous
Rattus norvegicus [10] = experiment: Hepatotoxicity in Sprague-Dawley rat assessed as serum alanine aminotransferase level at 50 mg/kg, po daily for 1 week by Reitman-Frankel colorimetric procedure; type: toxicity, organism-based; design: dose 50 mg/kg, route oral; settings: in vivo, 168 h
Rattus norvegicus [11] = experiment: Hepatotoxicity in Sprague-Dawley rat assessed as serum aspartate aminotransferase level at 50 mg/kg, po daily for 1 week by Reitman-Frankel colorimetric procedure; type: toxicity, organism-based; design: dose 50 mg/kg, route oral; settings: in vivo, 168 h
Rattus norvegicus [12] = experiment: Analgesic activity in Sprague-Dawley rat assessed as change in latency time required to elicit jumping or hind paw licking at 25 mg/kg, sc administered 1 hr prior testing measured after 2 hrs of post dose by hot plate method relative to basal level; type: functional; settings: route subcutaneous
Rattus norvegicus [13] = experiment: Antiinflammatory against carrageenan-induced paw edema in Sprague-Dawley rat assessed as remaining paw edema at 50 mg/kg, sc administered 30 mins before carrageenan challenge measured after 2 hrs by plethysmometer relative to control; type: functional; settings: route subcutaneous
Rattus norvegicus [14] = experiment: Gastrointestinal toxicity in Sprague-Dawley rat assessed as gastric mucosal lesion at 50 mg/kg, po daily for 1 week; type: organism-based, Gastric mucosa; design: dose 50 mg/kg, route oral; settings: in vivo, 168 h
Rattus norvegicus [15] = experiment: Analgesic activity in Sprague-Dawley rat assessed as latency time required to elicit jumping or hind paw licking at 25 mg/kg, sc administered 1 hr prior testing measured after 2 hrs of post dose by hot plate method; type: functional; settings: route subcutaneous
Mus musculus [16] = experiment: Analgesic activity in Swiss albino mouse assessed as inhibition of acetic acid-induced abdominal constriction at 10 mg/kg, sc administered 30 mins prior to acetic acid challenge measured for 30 mins relative to control; type: functional; settings: Abdomen, route subcutaneous
Rattus norvegicus [17] = experiment: Antiinflammatory against carrageenan-induced paw edema in Sprague-Dawley rat assessed as remaining paw edema at 10 mg/kg, sc administered 30 mins before carrageenan challenge measured after 2 hrs by plethysmometer relative to control; type: functional; settings: route subcutaneous
Rattus norvegicus [18] = experiment: Analgesic activity in Sprague-Dawley rat assessed as change in latency time required to elicit jumping or hind paw licking at 10 mg/kg, sc administered 1 hr prior testing measured after 1 hr of post dose by hot plate method relative to basal level; type: functional; settings: route subcutaneous
Rattus norvegicus [19] = experiment: Analgesic activity in Sprague-Dawley rat assessed as change in latency time required to elicit jumping or hind paw licking at 10 mg/kg, sc administered 1 hr prior testing measured after 2 hrs of post dose by hot plate method relative to basal level; type: functional; settings: route subcutaneous
Rattus norvegicus [20] = experiment: Antiinflammatory against carrageenan-induced paw edema in Sprague-Dawley rat assessed as remaining paw edema at 10 mg/kg, sc administered 30 mins before carrageenan challenge measured after 1 hr by plethysmometer relative to control; type: functional; settings: route subcutaneous
Rattus norvegicus [21] = experiment: Antiinflammatory against carrageenan-induced paw edema in Sprague-Dawley rat assessed as remaining paw edema at 10 mg/kg, sc administered 30 mins before carrageenan challenge measured after 4 hrs by plethysmometer relative to control; type: functional; settings: route subcutaneous
Rattus norvegicus [22] = experiment: Antiinflammatory against carrageenan-induced paw edema in Sprague-Dawley rat assessed as remaining paw edema at 10 mg/kg, sc administered 30 mins before carrageenan challenge measured after 3 hrs by plethysmometer relative to control; type: functional; settings: route subcutaneous

Structure (SMILES)	Activity (Rattus norvegicus [1])	Activity (Rattus norvegicus [2])	inhibition in vivo at 25 mg/kg (Mus musculus [3])	Activity (Rattus norvegicus [4])	Activity (Rattus norvegicus [5])	Activity (Rattus norvegicus [6])	Activity (Rattus norvegicus [7])	Activity (Rattus norvegicus [8])	Activity (Rattus norvegicus [9])	Activity (Rattus norvegicus [10])	Activity (Rattus norvegicus [11])	Activity (Rattus norvegicus [12])	Activity (Rattus norvegicus [13])	Activity (Rattus norvegicus [14])	Activity (Rattus norvegicus [15])	other results
NNC(=O)Nc1cc2cc([N+](=O)[O-])ccc2s1	59.7%	56.4%	-43.4%	79%	45.9%	71.2%	80%	54.3%	19.4%	Non-toxic	Non-toxic	7.5%	45.9%	Non-toxic		
NNC(=O)c1cc2cc([N+](=O)[O-])ccc2s1	49.4%	51.3%	-88.2%	55.9%	38.2%	51.9%	55.9%	46.3%	24.7%	Non-toxic	Non-toxic	31.6%	42.2%	Non-toxic		
O=C(N/N=C/c1c[nH]c2ccccc12)c1cc2cc([N+](=O)[O-])ccc2s1	63.2%	49.6%	16.9%	90.1%	36.9%	89.1%	90%	46.6%	16.6%	Non-toxic	Non-toxic		46.5%	Non-toxic	14.72 s	
Cc1ccc(/C=N/NC(=O)c2cc3cc([N+](=O)[O-])ccc3s2)o1	55.9%	40.7%	-43.1%	92.2%	37.5%	77.2%	92%	41.3%	19.8%	Non-toxic	Non-toxic	22.39%	41.6%	Non-toxic		
O=C(NNC(=S)Nc1ccccc1)c1cc2cc([N+](=O)[O-])ccc2s1	40%	46.2%	-63.4%	54.6%	35.7%	48.1%	58.7%	45.3%	36.5%	Non-toxic	Non-toxic		42.7%	Non-toxic	16.66 s	
CN1C(C(=O)Nc2ccccn2)=C(O)c2ccccc2S1(=O)=O [PIROXICAM]																inhibition in vivo at 10 mg/kg (Mus musculus [16]): -56.9%; Activity (Rattus norvegicus [17]): 42.9%; Activity (Rattus norvegicus [18]): 21.4%; Activity (Rattus norvegicus [19]): 8.3%; Activity (Rattus norvegicus [20]): 35.9%; Activity (Rattus norvegicus [21]): 51.4%; Activity (Rattus norvegicus [22]): 51.4%
